Our source for the IC50 values is ChEMBL document CHEMBL5727613, “Benzimidazolone and benzothiazolone compounds and their use as AMPA receptor modulators” (2020).

One may read the IC50 as the concentration needed to halve the response being measured.

The structures appear in SMILES notation.

The assay can be described thus: Calcium Flux Assay: This assay was used to test compounds for their ability to inhibit TARP γ8 dependent AMPA receptor activity. The AMPA receptor is a non-selective cation channel activated by glutamate. lonotropic glutamate receptors normally desensitize too rapidly to allow detectable calcium influx in a FLIPR assay (Strange et al. (2006). “Functional characterisation of homomeric ionotropic glutamate receptors GluR1-GluR6 in a fluorescence-based high throughput screening assay.” Comb Chem High Throughput Screen 9(2): 147-158). But, this desensitization is incomplete, and a substantial steady-state current remains in the sustained presence of glutamate (Cho et al. (2007). “Two families of TARP isoforms that have distinct effects on the kinetic properties of AMPA receptors and synaptic currents.” Neuron 55(6): 890-904).An in vitro assay was used to determine the potency of test compounds as inhibitors of the glutamate response of the channel formed by GluA1o-g8. To ensure a 1:1 stoichiometry of GluA1o and g8 subunits in the expressed channel, a fusion of the cDNAs for GRIA1o and CACNG8 was used. Channels expressed with this construct appear to have similar properties to channels formed by co-expression of GRIA1o with an excess of CACNG8 (Shi et al. 2009). A clonal cell line in HEK293 cells stably expressing this construct, with a geneticin selection marker, was generated for use in this assay. Cell expressing the GRIAlo-CACNG8 fusion construct were grown in a monolayer in 96- or 384-well microtiter plates. They were washed with assay buffer (135 mM NaCl, 4 mM KCl, 3 mM CaCl2), 1 mM MgCl2, 5 mM glucose, 10 mM HEPES, pH 7.4, 300 mOs) using a Biotek EL405 plate washer. The cells were then loaded with a calcium-sensitive dye (Calcium-5 or Calcium-6, Molecular Devices) and the test compounds at a range of concentrations. Calcium flux following the addition of 15 μM glutamate was monitored using a Molecular Devices FLIPR Tetra.The fluorescence in each well was normalized to the fluorescence of negative and positive control wells. […].
Take `Cc1cccc(C)c1-c1ccc2[nH]c(=O)[nH]c2c1`: the IC50 came to 158 nM. On to `O=c1[nH]c2ccc(-c3c(Cl)cccc3OC(F)(F)F)cc2s1`, for which the IC50 stood at 2.51 nM.

As to `O=c1[nH]c2ccc(-c3c(Cl)cccc3C3CC3)cc2[nH]1`, the IC50 stood at 6.31 nM.
